# Columns and labels:
# [1] = target: T1, 14-3-3σ•Task-3 ctp interaction (Homo sapiens, UniProt P31947); assay: Fluorescence polarization (FP) of fluorescein-labeled Task-3 ctp titrated with 14-3-3σ; type: binding; conditions: for screen for functional interaction with 14-3-3σ•Task-3 ctp complex (result in words): library screen of 8a-j, 9-11, FIG. 3
# T1 construct: made in house; host or cells: E. coli BL21
# Procedure: (§1) Replicated in this example was Ottmann's characterization of interactions between 14-3-3σ and a synthetic hexapeptide of Task-3 containing the putative C-terminal 14-3-3-interaction motif KRRK-pS-V (Task-3 ctp). (Anders, C. et al., Chem. Biol. 2013, 13, 583-593).
# (§2) Recombinant human 14-3-3σ was prepared using a bacterial expression protocol, which routinely produced 15 mg/L of purified protein. Recombinant 14-3-3σ was expressed in BL21 E. Coli cells and purified by Ni-affinity chromatography.
# The titration protocol was adapted to 96-well plate format using fluorescence polarization (FP) experiments. FP measurements of fluorescein-labeled Task-3 ctp, in the absence and presence of 100 μM fusicoccin A (1), titrated with 14-3-3σ were used to obtain the apparent Kd of the 14-3-3σ•Task-3 ctp interaction. […] Also collected were FP measurements of fluorescein-labeled c-Raf peptide, in the absence and presence of 100 μM fusicoccin A (1), titrated with 14-3-3σ to obtain the apparent Kd of the 14-3-3σ•c-Raf peptide interaction.
# Error bars indicate the mean±SD of three independent experiments.
# In view of the foregoing control data, a library of synthetic derivatives, including 8a-j, 9-11, was screened for functional interactions 14-3-3σ•Task-3 ctp complex. […]
# [2] = tested on: 14-3-3•PMA2 complex; conditions: background statement; cited from earlier work
# [3] = target: T2, 14-3-3σ•Task-3 ctp (Homo sapiens, UniProt P31947); assay: Isothermal titration calorimetry (ITC) of Task-3 ctp with 14-3-3σ in the presence and absence of fusicoccin A; type: binding; conditions: 100 μM fusicoccin A vs absence
# T2 construct: made in house; host or cells: E. coli BL21
# Procedure: as §1, §2
# This was determined by the association of ITC binding isotherms for Task-3 ctp with 14-3-3σ in the presence and absence of 100 μM of fusicoccin A (1).
# T1 sequence (P31947 whole entry, other chains not shown): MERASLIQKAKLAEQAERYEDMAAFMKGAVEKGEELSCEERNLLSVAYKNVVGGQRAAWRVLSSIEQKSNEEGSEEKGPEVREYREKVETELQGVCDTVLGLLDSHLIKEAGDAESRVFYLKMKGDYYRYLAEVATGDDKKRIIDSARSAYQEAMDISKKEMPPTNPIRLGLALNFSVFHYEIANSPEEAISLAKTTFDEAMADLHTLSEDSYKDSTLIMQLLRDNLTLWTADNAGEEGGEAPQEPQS
# T2 sequence (P31947 whole entry, other chains not shown): as above
structure (smiles),measurement,setting,value
"CC1CC(=O)C2C3C=CC4(CCCC4CC12)O3 (racemic) [compound 9, (±)-9-Methyl-1,2,3,6,6a,8,9,9a, 10,10a-decahydro-7H-3a,6-epoxydicyclopenta[a,d] [8]annulen-7-one]",melting point,,88.9 to 91.3 °C
"C=CC(C)(C)OC[C@H]1O[C@H](O[C@@H]2C3=C([C@H](C)COC(C)=O)C[C@H](O)[C@]3(C)/C=C3/[C@@H](COC)CC[C@H]3[C@@H](C)[C@H]2O)[C@H](O)[C@@H](OC(C)=O)[C@@H]1O [fusicoccin A, reference compound]",fold enhancement of apparent affinity of Task-3 ctp to 14-3-3σ,"[1]; FP, 100 μM fusicoccin A",37 fold
same,EC50,"[1]; FP, fluorescein-labeled Task-3 ctp and 14-3-3σ titrated with compound, mean±SD of three experiments, read-out: EC50 of stabilization of the 14-3-3σ•Task-3 ctp complex",1.4 ± 0.3 µM
same,prolongation of the lifetime of the 14-3-3•PMA2 complex,[2],90 fold
same,fold stabilization of 14-3-3σ•Task-3 ctp,[3],152 fold
"O=C1CCC2=C1[C@H]1C=C[C@]3(CCC[C@H]3C2)O1 (racemic) [compound 8a, (±)-1,2,3,6,8,9,10,10a-octahydro-7H-3a,6-epoxydicyclopenta[a,d] [8]annulen-7-one]",melting point,,50.8 to 51.3 °C
C=C(C)C1=C2[C@H]3C=C[C@]4(CCC[C@H]4C[C@@]2(C)CC1)O3 (racemic) [compound 11],fold enhancement of apparent affinity of Task-3 ctp to 14-3-3σ,"[1]; FP, DMSO (10%) in buffer, 1.6 mM compound",1.2 fold
same,screen for functional interaction with 14-3-3σ•Task-3 ctp complex (result in words),[1],increase the apparent affinity
O=C1CCC2=C1[C@@]1(CN3CCOCC3)C=C[C@]3(CCC[C@H]3C2)O1 [compound 8f],fold enhancement of apparent affinity of Task-3 ctp to 14-3-3σ,"[1]; FP, DMSO (10%) in buffer, 6.3 mM compound",1.1 fold
same,screen for functional interaction with 14-3-3σ•Task-3 ctp complex (result in words),[1],increase the apparent affinity
